Source: patent US10941150B2, “Salt type and crystal type of 4h-pyrazolo [1, 5-alpha] benzimidazole compound and preparation method and intermediate thereof” (HUBEI BIO-PHARMACEUTICAL INDUSTRIAL TECHNOLOGICAL INSTITUTE …, priority 2015, dated 2021)
Read-outs that look alike come from different tables or passages of the source.

Experiments:
[1] = Stability test for Crystal type A in different solvents; assay type: physicochemical; conditions: for Results (crystalline state by XRPD): 3 days
Excerpt: After being stirred for 3 days, the samples were centrifuged and the solid in all samples were collected. XRPD was used to determine the crystalline state.

[2] = Solid stability test for Crystal type A under high temperature, high humidity and strong illumination; assay type: physicochemical
Experimental: The sample placed at 60° C. and 92.5% relative humidity was sealed with aluminum foil at the vial mouth, and the aluminum foil was pricked to ensure that the sample was fully exposed to the ambient air; the sample placed under strong illumination (5Klux) was sealed with a screw cap. The samples placed under different conditions were sampled and tested on the 10th day. The test results were compared with the initial test results on the 0th day.

[3] = test system: MDA-MB-231 cells; experiment: Anti-proliferation test (CCK8), singly and combined with TMZ; assay type: cell-based; conditions: for IC50: 8 days; for PF50: PF50=[IC50 of the tested compound]/[IC50 at fixed TMZ concentration]
Experimental: (§1) MDA-MB-436 and MDA-MB-231 cells were seeded in a 96-well plate at a density of 500 and 2000 cell per well, respectively, and cultured overnight. The medium was RPMI 1640 containing 10% (v/v) FBS and 1% (v/v) penicillin-streptomycin. They were treated for 8 days after the compound to be tested was added. Cell viability was measured by CCK8 kit. Specifically, 10 µL CCK8 reagent was added to each well and incubated in a 5% CO2 incubator at 37° C. for 3 hours. After shaking for 10 minutes, the light absorbance (OD value) was measured with a Flexstation III (Molecular Device) at 450 nm.
(§2) For the test of compound combinations (in combination with DNA damage drugs), the PF50 value was used to calculate the synergistic effect of the drug. PF50=[IC50 of the tested compound]/[IC50 of the compound at a fixed DNA damage drug concentration]. Temozolomide (TMZ) was used as DNA damage drug in this study.

[4] = test system: MDA-MB-436 cells; experiment: as above; assay type: cell-based; conditions: for IC50: 8 days; for PF50: PF50=[IC50 of the tested compound]/[IC50 at fixed TMZ concentration]
Experimental: as §1, §2

[5] = Strong illumination (sealed), 5Klux, day 10
[6] = Homo sapiens, MDA-MB-231, 192 h, MDA-MB-231, combined with 1uM TMZ, average, read-out: IC50_Avg
[7] = Homo sapiens, MDA-MB-231, 192 h, MDA-MB-231, combined with 1uM TMZ, run N=1, read-out: IC50_N = 1
[8] = Homo sapiens, MDA-MB-231, 192 h, MDA-MB-231, combined with 1uM TMZ, run N=2, read-out: IC50_N = 2
[9] = Homo sapiens, MDA-MB-231, 192 h, MDA-MB-231, used singly, average, read-out: IC50_Avg
[10] = Homo sapiens, MDA-MB-231, 192 h, MDA-MB-231, used singly, run N=1, read-out: IC50_N = 1
[11] = Homo sapiens, MDA-MB-231, 192 h, MDA-MB-231, used singly, run N=2, read-out: IC50_N = 2
[12] = MDA-MB-231, combined with 1uM TMZ
[13] = Homo sapiens, MDA-MB-436, 192 h, MDA-MB-436, combined with 25uM TMZ, average, read-out: IC50_Avg
[14] = Homo sapiens, MDA-MB-436, 192 h, MDA-MB-436, combined with 25uM TMZ, run N=1, read-out: IC50_N = 1
[15] = Homo sapiens, MDA-MB-436, 192 h, MDA-MB-436, combined with 25uM TMZ, run N=2, read-out: IC50_N= 2
[16] = Homo sapiens, MDA-MB-436, 192 h, MDA-MB-436, used singly, average, read-out: IC50_Avg
[17] = Homo sapiens, MDA-MB-436, 192 h, MDA-MB-436, used singly, run N=1, read-out: IC50_N = 1
[18] = Homo sapiens, MDA-MB-436, 192 h, MDA-MB-436, used singly, run N=2, read-out: IC50_N= 2
[19] = MDA-MB-436, combined with 25uM TMZ

Which results are given for CC(C)N1CCC(C)(c2cnn3c2[nH]c2cc(F)cc(C(N)=O)c23)CC1.O=C(O)/C=C\C(=O)O [Crystal type A, 6-fluoro-3-(1-isopropyl-4-methylpiperidin-4-yl)-4H-benzo[4,5]imidazo[1,2-b]pyrazol-8-formamide.maleate monohydrate]?
Appearance (3 days) ([1]; Acetone, 25° C.): Suspension; Results (crystalline state by XRPD) ([1]; Acetone, stirred at 25° C.): Crystal type A; Appearance (3 days) ([1]; Acetone:water = 1:2, 25° C.): Suspension; Results (crystalline state by XRPD) ([1]; Acetone:water = 1:2, stirred at 25° C.): Crystal type A; Appearance (3 days) ([1]; Acetonitrile:water = 1:1, 25° C.): Suspension; Results (crystalline state by XRPD) ([1]; Acetonitrile:water = 1:1, stirred at 25° C.): Crystal type A; Appearance (3 days) ([1]; Ethanol, 25° C.): Suspension; Results (crystalline state by XRPD) ([1]; Ethanol, stirred at 25° C.): Crystal type A; Appearance (3 days) ([1]; Ethanol:water = 3:1, 25° C.): Suspension; Results (crystalline state by XRPD) ([1]; Ethanol:water = 3:1, stirred at 25° C.): Crystal type A; Appearance (3 days) ([1]; Ethyl acetate, 25° C.): Suspension; Results (crystalline state by XRPD) ([1]; Ethyl acetate, stirred at 25° C.): Crystal type A; Appearance (3 days) ([1]; Isopropanol, 25° C.): Suspension; Results (crystalline state by XRPD) ([1]; Isopropanol, stirred at 25° C.): Crystal type A; Appearance (3 days) ([1]; Isopropanol:water = 1:1, 25° C.): Suspension; Results (crystalline state by XRPD) ([1]; Isopropanol:water = 1:1, stirred at 25° C.): Crystal type A; Appearance (3 days) ([1]; Methanol, 25° C.): Suspension; Results (crystalline state by XRPD) ([1]; Methanol, stirred at 25° C.): Crystal type A; Appearance (3 days) ([1]; Methanol:water = 3:1, 25° C.): Suspension; Results (crystalline state by XRPD) ([1]; Methanol:water = 3:1, stirred at 25° C.): Crystal type A; Appearance ([2]; 60° C. (open), day 10): White powder; Content (%) ([2]; 60° C. (open), day 10): 98.5%; Total impurities (%) ([2]; 60° C. (open), day 10): 0.11%; Appearance ([2]; 92.5% RH (open), day 10): White powder; Content (%) ([2]; 92.5% RH (open), day 10): 99.5%; Total impurities (%) ([2]; 92.5% RH (open), day 10): 0.10%; Appearance [2, 5]: White powder; Content (%) [2, 5]: 99.4%; Total impurities (%) [2, 5]: 0.11%; Appearance ([2]; initial, day 0): White powder; Content (%) ([2]; initial, day 0): 98.9%; Total impurities (%) ([2]; initial, day 0): 0.10%

For C[C@]1(c2nc3c(C(N)=O)cccc3[nH]2)CCCN1 [ABT-888, Veliparib], which IC50 [3, 6] is on record?
The IC50 was 30.7 µM.

And the IC50 [3, 7]?
The IC50 was 25.5 µM.

What about the IC50 [3, 8] of the same compound?
Its IC50 is 36 µM.

And the IC50 [3, 9]?
The IC50 was 40.5 µM.

What about the IC50 [3, 10] of the same compound?
Its IC50 is 44 µM.

What about the IC50 [3, 11] of the same compound?
Its IC50 is 37 µM.

And the PF50 [3, 12]?
The PF50 was 1.32.

What about the IC50 [4, 13] of the same compound?
Its IC50 is 0.018 µM.

What about the IC50 [4, 14] of the same compound?
Its IC50 is 0.026 µM.

And the IC50 [4, 15]?
Its IC50 is 0.01 µM.

And the IC50 [4, 16]?
Its IC50 is 0.305 µM.

What about the IC50 [4, 17] of the same compound?
Its IC50 is 0.444 µM.

And the IC50 [4, 18]?
The IC50 was 0.167 µM.

What about the PF50 [4, 19] of the same compound?
Its PF50 is 17.14.

For Cn1nnc2c(C(N)=O)ncn2c1=O [TMZ, temozolomide], which IC50 [3, 9] is on record?
The IC50 was 4.17 µM.

What about the IC50 [3, 10] of the same compound?
Its IC50 is 4.61 µM.

And the IC50 [3, 11]?
Its IC50 is 3.72 µM.

What about the IC50 ([3]; MDA-MB-231, used singly, average, read-out: IC50_Avg) of the same compound?
The IC50 was 3.42 µM.

What about the IC50 ([3]; MDA-MB-231, used singly, run N=1, read-out: IC50_N = 1) of the same compound?
Its IC50 is 3.33 µM.

And the IC50 ([3]; MDA-MB-231, used singly, run N=2, read-out: IC50_N = 2)?
The IC50 was 3.52 µM.

What about the IC50 [4, 16] of the same compound?
Its IC50 is 111 µM.

What about the IC50 [4, 17] of the same compound?
The IC50 was 80.2 µM.

What about the IC50 ([4]; MDA-MB-436, used singly, average, read-out: IC50_Avg) of the same compound?
Its IC50 is 107 µM.

And the IC50 ([4]; MDA-MB-436, used singly, run N=1, read-out: IC50_N = 1)?
The IC50 was 152 µM.

With CC(C)N1CCC(C)(c2cnn3c2[nH]c2cc(F)cc(C(N)=O)c23)CC1 [Compound 1, 6-fluoro-3-(1-isopropyl-4-methylpiperidin-4-yl)-4H-benzo[4,5]imidazo[1,2-b]pyrazol-8-carboxamide] as the compound, how does the IC50 [3, 6] read?
Its IC50 is 4.86 µM.

And the IC50 [3, 7]?
The IC50 was 3.96 µM.

And the IC50 [3, 8]?
The IC50 was 5.75 µM.

And the IC50 [3, 9]?
Its IC50 is 5.83 µM.

What about the IC50 [3, 10] of the same compound?
The IC50 was 6.21 µM.

What about the IC50 [3, 11] of the same compound?
The IC50 was 5.44 µM.

And the PF50 [3, 12]?
The PF50 was 1.20.

And the “inhibitory effect on cell line” value ([4]; BRAC mutant MDA-MB-436 cell line)?
The value was “strong inhibitory effect”.

What about the IC50 [4, 13] of the same compound?
The IC50 was 0.007 µM.

And the IC50 [4, 14]?
The IC50 was 0.009 µM.

And the IC50 [4, 15]?
Its IC50 is 0.005 µM.

And the IC50 [4, 16]?
Its IC50 is 0.071 µM.

What about the IC50 [4, 17] of the same compound?
Its IC50 is 0.089 µM.

What about the IC50 [4, 18] of the same compound?
The IC50 was 0.053 µM.

What about the PF50 [4, 19] of the same compound?
The PF50 was 9.84.

What about the synergistic effect ([4]; combined with TMZ) of the same compound?
Its synergistic effect is “good synergistic effect”.
